Data set [1] has as its system TEX cells. The data set is described as follows: Gene expression. The class given is cell-based, human. The conditions noted are these: 96 hours.
Data set [2] concerns TEX cells. The data set is described as follows: Cell viability assay. It counts as cell-based, human.
For data set [3], the system named is TEX cells. The data set is described as follows: Western blot in TEX cells. It counts as cell-based, human. The following applies: 4 days.
Data set [4] deals with T1, RING1B RING domain (residues 10-116) as it stands in RING1B-BMI1f (UniProt Q99496 10-116).
T1 sequence: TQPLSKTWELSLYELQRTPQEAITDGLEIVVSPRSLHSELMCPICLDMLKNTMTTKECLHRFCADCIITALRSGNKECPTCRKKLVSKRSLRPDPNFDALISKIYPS
The data set is described as follows: crystal structure.

Consider `COc1cc(Br)c(Nc2nc(-c3c(C)nc4ncccn34)cs2)c(Br)c1` [PTC209], for which the “C/EBPα and CD34 expression” value with TEX cells [1] is “had no effect on C/EBPα and CD34 expression”. Besides, the “cytotoxicity compared with RB-3” value in the data set on TEX cells [2] is listed as “more cytotoxic to TEX cells than RB-3”. Also, the “H2Aub, BMI1 and H2A levels” value with TEX cells [3] is “decreased H2Aub, reduced BMI1 level and, unexpectedly, reduced H2A levels”.

B1: BMI1 RING domain (residues 1-104) as it stands in RING1B-BMI1f (domain or fragment)
chain: MHRTTRIKITELNPHLMCVLCGGYFIDATTIIECLHSFCKTCIVRYLETSKYCPICDVQVHKTRPLLNIRSDKTLQDIVYKLVPGLFKNEMKRRRDFYAAHPSA
Take B1: in data set [4], the binding result is recorded as “binds”.

These data come from paper PMC8238916 (Nature chemical biology, 2021).
